This is an account of results in patent EP4810498A1, “MEDICATION FOR TREATING SEVERE MALARIA AND SYNTHESIS METHOD THEREFOR” (Institute of Chinese Materia Medica, China Academy of …, priority 2023, dated 2025).

Molecules are shown by their SMILES. Read-outs that look alike come from different tables or passages of the source.

The test system of data set [1] is Plasmodium berghei ANKA strain. Briefly: Body weight of cerebral malaria model mice. Type of data set: in vivo, C57BL/6J mice. The source says: (§1) Experimental study on the antimalarial activity of Artesunazine (Example Ia-1) in vitro and vivo. I. Protection of Artesunazine on mice infected by Plasmodium berghei ANKA strain. (I) Experimental materials: • 1. Animals: C57BL/6J, weighing 16-18 g, 10 in each group, 50 in total. • 2. Plasmodium strain: Plasmodium berghei ANKA strain, donated by Professor Zhao Ya of Air Force Medical University of the People's Liberation Army of China (The Fourth Military Medical University), was preserved in our laboratory by blood transmission or freezing. • 3. Drugs and preparation methods: Artesunazine and a positive control drug artesunate were dissolved in a mixed solvent of polyethylene glycol 400 (PEG400) and water (PEG400:water=4:1), serving as a preparation for immediate use. (II) Experimental methods • 1. Plasmodium resuscitation and passage: A Plasmodium berghei ANKA strain frozen in liquid nitrogen was taken out and placed in a water bath kettle at 37°C. After melting, it was immediately intraperitoneally inoculated into C57BL/6J mice (0.2 mL/mouse). When the infection rate of the breeding mice reached 15-30%, their eyeballs were removed and blood was collected in an anticoagulant tube. After shaking well, the blood was transmitted to offspring C57BL/6J mice with a 1 mL syringe at an injection dose of 0.2 mL/mouse. • 2. Plasmodium inoculation: C57BL/6J mice were weighed and fed adaptively. When the infection rate of offspring C57BL/6J mice reached 15-30%, the total number of red blood cells and the number of pRBCs were counted after their eyeballs were removed and blood was collected. The blood was injected intraperitoneally into model group C57BL/6J mice at an injection dose of 0.2 mL (including 1×10^7 pRBCs) per mouse, which was the 0th day (D0) of inoculation. • 3. Animal grouping: After inoculation, the experimental mice were randomly divided into 5 groups, including a model (M) group, high, medium and low dose Artesunazine groups (i.e., 40 mg/kg, 20 mg/kg, and 10 mg/kg Artesunazine), and an artesunate group (i.e., 15.6 mg/kg AS, clinically equivalent dose). The dosage of the medium dose Artesunazine group (20mg/kg Artesunazine) is equivalent to that of the artesunate group (15.6 mg/kg). There are 10 mice in each group, a total of 50 mice. • 4. Determination of survival rate From the 0th day of inoculation, the death of mice was observed every day for 28 consecutive days. Survival rate = (Number of surviving mice)/(Number of experimental mice) × 100% [formula] • 5. Determination of recurrence rate After inoculation, the mice were randomly divided into groups and administered via nasal drip for 3 h. […] The mouse recurrence rate was calculated by the ratio of the number of mice with recurrence to the total number of mice. […]

Data set [2] concerns Plasmodium falciparum 3D7. Briefly: SYBR Green assay, growth inhibition of Plasmodium falciparum cultured in vitro. Type of data set: cell-based. The protocol: Plasmodium falciparum in the ring stage was synchronized. Smearing was carried out and the infection rate was counted. The synchronized parasitized red blood cells, healthy red blood cells and mediums were matched in a reasonable ratio, resulting in an in vitro culture system of plasmodia (ring bodies, 2 to 4 hours-old) with a hematocrit of 2% and an infection rate of 1%. […] A1-A10 was paved with 25 µl of drugs (with 8 complex wells for each drug) and mixed evenly, and then diluted in multiple proportions (Ax-Hx). Except for A12-H12, 50 µL of a plasmodium culture solution was spread in all the other wells; and A12-H12 was spread with 50 µl of healthy red blood cells (in the medium with a hematocrit of 2%). […] 100 µl of a lysis buffer was added to each of the wells and put into a drawer to avoid light for 1 h.
In this experiment, SYBR Green assay was used to determine the median inhibitory concentration (IC50) value of the drug for treating Plasmodium falciparum 3D7. Nonlinear regression was used to calculate the value by means of software graphpad prism 8.0 (the value was equal to average value plus or minus standard error), and a four-parameter logistic fitting curve was used. Each value in the curve was equal to average value plus or minus standard error in eight biological repetitive experiments.

Data set [3] deals with Plasmodium berghei ANKA strain. Briefly: Rapid mouse coma behavior scale (RMCBS) score of cerebral malaria model mice. It counts as in vivo, C57BL/6J mice.
Text: as §1

Data set [4] deals with Plasmodium berghei ANKA strain. Briefly: Survival rate of cerebral malaria model mice. To be noted: nasal drip, four consecutive days, 28 days of observation. Type of data set: in vivo, C57BL/6J mice.
Text: as §1

Data set [5] concerns Plasmodium berghei ANKA strain. The data set is described as follows: Recurrence rate of cerebral malaria model mice (blood smear). Type of data set: in vivo, C57BL/6J mice. An excerpt: Experimental study on the antimalarial activity of Artesunazine (Example Ia-1) in vitro and vivo. I. Protection of Artesunazine on mice infected by Plasmodium berghei ANKA strain. (I) Experimental materials: • 1. Animals: C57BL/6J, weighing 16-18 g, 10 in each group, 50 in total. • 2. Plasmodium strain: Plasmodium berghei ANKA strain, donated by Professor Zhao Ya of Air Force Medical University of the People's Liberation Army of China (The Fourth Military Medical University), was preserved in our laboratory by blood transmission or freezing. • 3. Drugs and preparation methods: Artesunazine and a positive control drug artesunate were dissolved in a mixed solvent of polyethylene glycol 400 (PEG400) and water (PEG400:water=4:1), serving as a preparation for immediate use. (II) Experimental methods • 1. Plasmodium resuscitation and passage: A Plasmodium berghei ANKA strain frozen in liquid nitrogen was taken out and placed in a water bath kettle at 37°C. After melting, it was immediately intraperitoneally inoculated into C57BL/6J mice (0.2 mL/mouse). When the infection rate of the breeding mice reached 15-30%, their eyeballs were removed and blood was collected in an anticoagulant tube. After shaking well, the blood was transmitted to offspring C57BL/6J mice with a 1 mL syringe at an injection dose of 0.2 mL/mouse. • 2. Plasmodium inoculation: C57BL/6J mice were weighed and fed adaptively. When the infection rate of offspring C57BL/6J mice reached 15-30%, the total number of red blood cells and the number of pRBCs were counted after their eyeballs were removed and blood was collected. The blood was injected intraperitoneally into model group C57BL/6J mice at an injection dose of 0.2 mL (including 1×10^7 pRBCs) per mouse, which was the 0th day (D0) of inoculation. • 3. Animal grouping: After inoculation, the experimental mice were randomly divided into 5 groups, including a model (M) group, high, medium and low dose Artesunazine groups (i.e., 40 mg/kg, 20 mg/kg, and 10 mg/kg Artesunazine), and an artesunate group (i.e., 15.6 mg/kg AS, clinically equivalent dose). The dosage of the medium dose Artesunazine group (20mg/kg Artesunazine) is equivalent to that of the artesunate group (15.6 mg/kg). There are 10 mice in each group, a total of 50 mice. • 4. Determination of survival rate From the 0th day of inoculation, the death of mice was observed every day for 28 consecutive days. Survival rate = (Number of surviving mice)/(Number of experimental mice) × 100% [formula] • 5. Determination of recurrence rate After inoculation, the mice were randomly divided into groups and administered via nasal drip for 3 h. After four consecutive days of administration, blood smear test began at D4. A small drop of blood was taken from the tail tip of a mouse and dropped onto a glass slide. The blood drop was pushed to one end at a certain angle with the edge of another glass slide to make a thin blood film with appropriate thickness. After the thin blood film was air-dried, it was fixed with methanol and placed until completely air-dried. After a Giemsa stain solution was diluted at a ratio of 1:9 for staining (completely covering the fixed thin blood film) for 20 min, the thin blood film was rinsed under a faucet, and the water on the surface of the film was quickly absorbed with filter paper. A drop of cedar oil was dropped onto a glass slide for examination under a 100x oil microscope to count the number of parasitized red blood cells contained in 1000 red blood cells. The mouse recurrence rate was calculated by the ratio of the number of mice with recurrence to the total number of mice. Recurrence rate = (Number of mice with recurrence)/(Number of experimental mice) × 100% [formula] • 6. RMCBS score determination A rapid mouse coma behavior scale (RMCBS) was used to evaluate the neurological function of experimental mice. […]

For data set [6], the system named is Plasmodium berghei ANKA strain. The data set is described as follows: Anal temperature of cerebral malaria model mice. It counts as in vivo, C57BL/6J mice. The conditions noted are these: compared with the AS group (P<0.001). The source says:
Experimental study on the antimalarial activity of Artesunazine (Example Ia-1) in vitro and vivo. I. Protection of Artesunazine on mice infected by Plasmodium berghei ANKA strain. (I) Experimental materials: • 1. Animals: C57BL/6J, weighing 16-18 g, 10 in each group, 50 in total. • 2. Plasmodium strain: Plasmodium berghei ANKA strain, donated by Professor Zhao Ya of Air Force Medical University of the People's Liberation Army of China (The Fourth Military Medical University), was preserved in our laboratory by blood transmission or freezing. • 3. Drugs and preparation methods: Artesunazine and a positive control drug artesunate were dissolved in a mixed solvent of polyethylene glycol 400 (PEG400) and water (PEG400:water=4:1), serving as a preparation for immediate use. (II) Experimental methods • 1. Plasmodium resuscitation and passage: A Plasmodium berghei ANKA strain frozen in liquid nitrogen was taken out and placed in a water bath kettle at 37°C. After melting, it was immediately intraperitoneally inoculated into C57BL/6J mice (0.2 mL/mouse). […] When the infection rate of offspring C57BL/6J mice reached 15-30%, the total number of red blood cells and the number of pRBCs were counted after their eyeballs were removed and blood was collected. […] The mouse recurrence rate was calculated by the ratio of the number of mice with recurrence to the total number of mice. […]

The mark [7] stands for this setting: Plasmodium falciparum standard strain 3D7, cultured for 72 h, read-out: IC50.

In data set [1] (AS group (15.6 mg/kg), at the end of the observation, in g (unit assumed)), `C[C@H]1[C@H](OC(=O)CCC(=O)O)O[C@@H]2O[C@@]3(C)CC[C@H]4[C@H](C)CC[C@@H]1[C@@]24OO3` [artesunate, dihydroartemisinin-12-α-succinate, reference compound] showed a body weight of 15.41±0.50. Moreover, the IC50 in data set [2] (Plasmodium falciparum, 3D7, 72 h) was 8.82 nM. Further, the content of artesunate entry (mixed solution with ligustrazine hydrochloride in 80% polyethylene glycol 400, dark environment at 40°C) was “rapidly decreased”. The same molecule came in with an RMCBS score in data set [3] (AS group (15.6 mg/kg), at the end point of observation, total of 20 points) of 16.22±0.55 points. Besides, the survival rate in data set [4] (15.6 mg/kg AS) was found to be 40%. In addition, in data set [5] (AS group (15.6 mg/kg)), the “Recurrence rate (%) D4” value is reported as 10%, the “Recurrence rate (%) D7” value is recorded as 90% and the “Recurrence rate (%) D28” value turned out to be 100%.
On to `Cc1nc(C)c(COC(=O)CCCC(=O)OC2OC3OC4(C)CCC5C(C)CCC(C2C)C35OO4)nc1C` [Compound Ia-4, (3R, 5aS, 6R, 9R, 10R, 12R, 12aR)-3,6,9-trimethyldecahydro-12h-3, 12-epoxy [1, 2] dioxopyran [4,3-i] isobenzopyran-10-yl ((3,5,6-trimethylpyrazine-2-yl)methyl) glutarate], for which the IC50 in data set [2] (setting [7]) worked out at 33.9 nM.
On to `CCN(CC)CCCC(C)Nc1ccnc2cc(Cl)ccc12` (centres unmarked) [chloroquine, reference compound], for which the IC50 in data set [2] (Plasmodium falciparum, 3D7) is about 2.36 nM.
On to `Cc1nc(C)c(COC(=O)CCCCC(=O)OC2OC3OC4(C)CCC5C(C)CCC(C2C)C35OO4)nc1C` [Compound Ia-6, (3R, 5aS, 6R, 9R, 10R, 12R, 12aR)-3,6,9-trimethyldecahydro-12h-3, 12-epoxy [1, 2] dioxopyran [4,3-i] isobenzopyran-10-yl ((3,5,6-trimethylpyrazine-2-yl)methyl) adipate], for which, in data set [2] (setting [7]), the IC50 came out at 14.3 nM.
On to `Cc1nc(C)c(COC(=O)CCC(=O)OC2OC3OC4(C)CCC5C(C)CCC(C2C)C35OO4)nc1C` [Compound Ia-1, (3R, 5aS, 6R, 9R, 10R, 12R, 12aR)-3,6,9-trimethyldecahydro-12h-3, 12-epoxy [1, 2] dioxopyran [4,3-i] isobenzopyran-10-yl ((3,5,6-trimethylpyrazine-2-yl)methyl) succinate], for which the body weight in data set [1] (10 mg/kg, at the end of the observation) was 16.66±0.45; in data set [1] (20 mg/kg, throughout the observation period), “no significant decrease”; in data set [1] (40 mg/kg, throughout the observation period), “no significant decrease”. Moreover, the IC50 in data set [2] (setting [7]) is 7.36 nM. Also, the “color of the solution” value (80% polyethylene glycol 400 solution, 40°C, dark) was “basically unchanged”. Besides, the RMCBS score is 18.40±0.48 points in data set [3] (10 mg/kg), “around 20 points” in data set [3] (20 mg/kg) and “around 20 points” in data set [3] (40 mg/kg). In addition, the figures for the survival rate in data set [4] (10 mg/kg Artesunazine (low dose)), in data set [4] (20 mg/kg Artesunazine (medium dose)) and in data set [4] (40 mg/kg Artesunazine (high dose)) were 50%, 90% and 100%, respectively. Further, the temperature entry in data set [6] (20 mg/kg) and in data set [6] (40 mg/kg) was “better maintained the temperature” each time. Moreover, the “Recurrence rate (%) D4” value came out at 10% in data set [5] (10 mg/kg), 0% in data set [5] (20 mg/kg) and 0% in data set [5] (40 mg/kg). For the same molecule, the “Recurrence rate (%) D7” value in data set [5] (10 mg/kg) was found to be 80%. Further, the “Recurrence rate (%) D28” value in data set [5] (10 mg/kg) was 100%; in data set [5] (20 mg/kg) it was 10%; in data set [5] (40 mg/kg), 10%.
As for `Cc1nc(C)c(COC(=O)CCCCCC(=O)OC2OC3OC4(C)CCC5C(C)CCC(C2C)C35OO4)nc1C` [Compound Ia-5, (3R, 5aS, 6R, 9R, 10R, 12R, 12aR)-3,6,9-trimethyldecahydro-12h-3, 12-epoxy [1, 2] dioxopyran [4,3-i] isobenzopyran-10-yl ((3,5,6-trimethylpyrazine-2-yl)methyl) pimelate], in data set [2] (setting [7]), the IC50 worked out at 2.95 nM.

The term IC50 denotes the concentration that inhibits the measured activity by half.
